This is an account of results in the Kinase Knowledgebase extract (Sharma et al. 2016).

The target of the experiment is MAPK14 (UniProt Q16539). Kind of experiment: Inhibition of MAPK14 Kinase Activity.
MAPK14, sequence (Q16539 whole entry, looked up): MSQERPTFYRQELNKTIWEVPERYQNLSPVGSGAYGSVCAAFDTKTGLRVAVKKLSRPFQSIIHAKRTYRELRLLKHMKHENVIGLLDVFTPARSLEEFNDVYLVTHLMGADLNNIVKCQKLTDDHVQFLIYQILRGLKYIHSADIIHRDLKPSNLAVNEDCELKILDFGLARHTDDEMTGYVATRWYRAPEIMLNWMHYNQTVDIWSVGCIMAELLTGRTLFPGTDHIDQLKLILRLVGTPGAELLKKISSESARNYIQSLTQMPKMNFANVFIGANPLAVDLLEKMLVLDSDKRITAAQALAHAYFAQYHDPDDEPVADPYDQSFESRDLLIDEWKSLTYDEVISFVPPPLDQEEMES

By IC50 is commonly meant the concentration at which inhibition is half-maximal. A high value points to lower potency. `Cc1cccc(-c2nn3c(c2-c2ccnc4ccc(C(=O)O)cc24)CCC3)n1` showed an IC50 below 20 µM.

As to `CN(C)CC(=O)Nc1ccc2c(-c3c(-c4ccccn4)nn4c3CCC4)ccnc2c1`, the IC50 is below 20 µM.

In the case of `c1ccc(-c2nn3c(c2-c2ccnc4cc(OCCCn5ccnc5)ccc24)CCC3)nc1`, the IC50 was below 20 µM.

As for `OCCCSc1ccc2c(-c3c(-c4ccccn4)nn4c3CCC4)ccnc2c1`, the IC50 is below 20 µM.

`Cc1cccc(-c2nn3c(c2-c2ccnc4cc(N)ccc24)CCC3)n1`: the IC50 is below 20 µM.

The compound `c1ccc(-c2nn3c(c2-c2ccc4ccccc4c2)CCC3)nc1` came in with an IC50 below 20 µM.

The compound `CN1CCN(CCCOc2ccc3c(-c4c(-c5ccccn5)nn5c4CCC5)ccnc3c2)CC1` returned an IC50 below 20 µM.

For `O=C(NCCc1c[nH]cn1)c1ccc2c(-c3c(-c4ccccn4)nn4c3CCC4)ccnc2c1`, the 50% inhibitory concentration (IC50) is below 20 µM.

As to `COC(=O)c1ccc2c(-c3c(-c4ccccn4)nn4c3CCC4)ccnc2c1`, the half-inhibitory concentration (IC50) is below 20 µM.

Compound `CSc1ccc2nccc(-c3c(-c4ccccn4)nn4c3CCC4)c2c1` came in with an IC50 below 20 µM.

The compound `Cc1cccc(-c2nn3c(c2-c2ccc4c(c2)OCO4)CCC3)n1` had an IC50 below 20 µM.

`Cc1cccc(-c2nn3c(c2-c2ccnc4ccc(-c5ccc(F)cc5)cc24)CCC3)n1`: the IC50 is below 20 µM.

`CNC(=O)c1ccc2c(-c3c(-c4ccccn4)nn4c3CCC4)ccnc2c1`: the half-inhibitory concentration (IC50) was below 20 µM.

For `COc1ccc2c(-c3c(-c4ccccn4)nn4c3CCC4)ccnc2c1`, the IC50 is below 20 µM.

On to `Fc1ccc(-c2nn3c(c2-c2ccnc4ccccc24)CCC3)cc1`, for which the IC50 was below 20 µM.

In turn, `Cc1cccc(-c2nn3c(c2-c2ccc(F)cc2)CC[C@@H]3CC#N)n1` had a half-inhibitory concentration (IC50) below 20 µM.
